Test results as given in the PolyMetriX glass transition set.
Counter-ions that a name gives are not always drawn. ± gives the standard deviation of the reports.

| glass transition temperature | Compound |
| --- | --- |
| 276.00 °C | *c1ccc(C(c2ccc(N3C(=O)c4ccc(Oc5cccc6c(Oc7ccc8c(c7)C(=O)N(*)C8=O)cccc56)cc4C3=O)cc2)(C(F)(F)F)C(F)(F)F)cc1 (repeat unit) |
| 201.00 °C | *c1ccc(Oc2ccc(S(=O)(=O)c3ccc(Oc4ccc(N5C(=O)c6ccc(Oc7cccc(Oc8ccc9c(c8)C(=O)N(*)C9=O)c7)cc6C5=O)cc4)cc3)cc2)cc1 (repeat unit) |
| 113.00 °C | *Oc1ccc(-c2ccc(OC(=O)c3cc(OCCCCCC)c(C(*)=O)cc3OCCCCCC)cc2)cc1 (repeat unit) |
| 214.00 °C | *c1ccc(Oc2cccc(Oc3ccc(N4C(=O)c5cccc(Oc6ccc(Oc7cccc8c7C(=O)N(*)C8=O)cc6)c5C4=O)cc3)c2)cc1 (repeat unit) |
| 367.43 ± 3.4 °C | *c1ccc(-c2nc3cc(-c4ccc5nc(-c6ccccc6)c(*)nc5c4)ccc3nc2-c2ccccc2)cc1 (repeat unit) [poly(phenylquinoxaline)] |
| 165.00 °C | *CCCCCCCN1C(=O)c2ccc(C(c3ccc4c(c3)C(=O)N(*)C4=O)(C(F)(F)F)C(F)(F)F)cc2C1=O (repeat unit) |
| 214.00 °C | *Oc1ccc(C(C)(C)c2ccc(Oc3ccc(C(=O)Nc4cccc(NC(=O)c5ccc(*)cc5)c4)cc3)cc2)cc1 (repeat unit) |
| 236.00 °C | *c1ccc(C(C)(C)c2ccc(N3C(=O)c4ccc(Oc5ccc6cc(Oc7ccc8c(c7)C(=O)N(*)C8=O)ccc6c5)cc4C3=O)cc2)cc1 (repeat unit) |
| 207.00 °C | *c1cc(C(c2ccc(OCCN(C)c3ccc(/C=C/C4=CC(=C(/C#N)C(=O)OC)/CC(C)(C)C4)cc3)c(N3C(=O)c4ccc(Oc5ccc6c(c5)C(=O)N(*)C6=O)cc4C3=O)c2)(C(F)(F)F)C(F)(F)F)ccc1OCCN(c1ccccc1)c1ccc(/C=C/C2=CC(=C(/C#N)C(=O)OC)/CC(C)(C)C2)cc1 (repeat unit) |
| 292.00 ± 28 °C | *c1ccc(Oc2ccc(Oc3ccc(-n4c(=O)c5cc6c(=O)n(*)c(=O)c6cc5c4=O)cc3)cc2)cc1 (repeat unit) |
| 198.00 °C | *Nc1cccc2c(NC(=O)c3cc(NC(=O)C(CCSC)N4C(=O)c5ccccc5C4=O)cc(C(*)=O)c3)cccc12 (repeat unit) |
| 300.00 ± 9 °C | *C(=O)c1ccc2c(c1)C(=O)N(c1cccc(N3C(=O)c4ccc(*)cc4C3=O)c1)C2=O (repeat unit) |
| 260.00 °C | *C(=S)Nc1ccc(Oc2ccc(NC(=S)N3C(=O)c4ccc(C(c5ccc6c(c5)C(=O)N(*)C6=O)(C(F)(F)F)C(F)(F)F)cc4C3=O)cc2)cc1 (repeat unit) |
| 113.2 ± 1.8 °C | *c1ccc2c(c1)C(CCCCCCCC)(CCCCCCCC)c1cc(-c3ccc(*)c4nsnc34)ccc1-2 (repeat unit) |
| 228.00 °C | *c1ccc(Oc2ccc(Oc3ccc(N4C(=O)c5ccc(Oc6ccc7ccc(Oc8ccc9c(c8)C(=O)N(*)C9=O)cc7c6)cc5C4=O)cc3)cc2)cc1 (repeat unit) |
| 268.00 °C | *c1ccc(-c2ccc(-n3c(-c4ccc(Oc5ccc(C(=O)c6ccc(Oc7ccc(-c8nc9ccccc9n8*)cc7)cc6)cc5)cc4)nc4ccccc43)cc2)cc1 (repeat unit) |
| -26.00 °C | *CC(CCCCCCCCCCCCCCCC)C(CCCCCCCCCCCCCCCC)COC(=O)c1ccc(C(=O)O*)cc1 (repeat unit) |
| 77.00 °C | */C=C/C1CC(*)C(F)(F)C1(F)OC(F)(F)C(F)(F)C(F)(F)F (repeat unit) |
| 366.50 °C | *c1ccc2c(c1)C(=O)N(c1cc(C(=O)O)cc(N3C(=O)c4ccc(C(*)(C(F)(F)F)C(F)(F)F)cc4C3=O)c1)C2=O (repeat unit) |
| 182.00 °C | *CCCCNC(=O)c1ccc(C(C)(CC)c2ccc(C(=O)N*)cc2)cc1 (repeat unit) |
| 124.00 °C | *CC(*)(CC(=O)OC1CCCCCCC1)C(=O)OC1CCCCCCC1 (repeat unit) |
| 229.00 °C | *Oc1ccc(C(c2ccccc2)(c2ccccc2)c2ccc(OC(=O)c3cccc(C(*)=O)c3)cc2)cc1 (repeat unit) |
| 249.00 °C | *c1ccc(-c2ccc(Oc3ccc(C4(C)CC(C)(C)c5ccc(Oc6ccc(-c7ccc(N8C(=O)c9ccc(Oc%10ccc%11c(c%10)C(=O)N(*)C%11=O)cc9C8=O)cc7)cc6C(F)(F)F)cc54)cc3)c(C(F)(F)F)c2)cc1 (repeat unit) |
| 143.00 °C | *Oc1ccc2ccc(Oc3ccc(C(=O)Nc4ccc(Oc5ccc(C(C)(C)c6ccc(Oc7ccc(NC(=O)c8ccc(*)cc8)cc7)cc6)cc5)cc4)cc3)cc2c1 (repeat unit) |

| glass transition temperature | Compound |
| --- | --- |
| 222.00 °C | *c1ccc(Oc2ccc(C(=O)c3cccc(C(=O)c4ccc(Oc5ccc(N6C(=O)c7ccc(-c8ccc9c(c8)C(=O)N(*)C9=O)cc7C6=O)cc5)cc4)c3)cc2)cc1 (repeat unit) |
| 19.00 °C | *CC(=O)NCCCCCCNC(=O)COC(=O)CCCCC(=O)O* (repeat unit) |
| 206.00 °C | */C=C/C1CC(*)C2C(=O)N(c3cccc(C)c3)C(=O)C12 (repeat unit) |
| 36.00 °C | *CCCCCCCCNC(=O)CCCCCCCCCCCCCCCCC(=O)N* (repeat unit) |
| 171.00 °C | *CC(*)(C)C(=O)NC(C)c1cccc2ccccc12 (repeat unit) |
| 54.2 °C | *CC(*)C(=O)OCCCOc1ccc(-c2ccc(C#N)cc2)cc1 (repeat unit) |
| 105.00 °C | *Cc1ccc(CNC(=O)CCCCCCCCCCC(=O)N*)cc1 (repeat unit) |
| 195.00 °C | */C=C(\C#N)C(=O)NC1CCCCC1NC(=O)/C(C#N)=C/c1ccc(/C=C/c2ccc(N(CC)Cc3ccccc3CN(CC)c3ccc(/C=C/c4ccc(*)s4)cc3)cc2)s1 (repeat unit) |
| 150.00 °C | *c1ccc2c(c1)Sc1cc(-c3ccc(-c4ccc(*)s4)s3)ccc1N2CCCCCCCCCCCC (repeat unit) |
| 297.50 °C | *C(=O)Nc1ccc(NC(=O)c2ccc(N3C(=O)c4ccc(*)cc4C3=O)cc2)cc1 (repeat unit) |
| 204.00 °C | *c1ccc2c(c1)C(=O)N(c1ccc(OC(CCC)COc3ccc(N4C(=O)c5ccc(C(*)(C(F)(F)F)C(F)(F)F)cc5C4=O)cc3)cc1)C2=O (repeat unit) |
| 38.00 °C | *Oc1ccc(CC(NC(=O)Cc2ccc(OC(=O)CC(C)CCC(*)=O)cc2)C(=O)OCCCCCC)cc1 (repeat unit) |
| 232.00 °C | *CCC(=O)Nc1ccc(Oc2ccc(NC(=O)CCN3C(=O)c4ccc(C(=O)c5ccc6c(c5)C(=O)N(*)C6=O)cc4C3=O)cc2)cc1 (repeat unit) |
| 63.00 °C | *CCCC(C)(C)CNC(=O)CCCCCCCC(=O)N* (repeat unit) |
| 180.00 °C | *c1cc(-c2nc3ccccc3[nH]2)cc(-n2c(=O)c3cc4c(=O)n(*)c(=O)c4cc3c2=O)c1 (repeat unit) |
| 148.00 °C | *CC(*)(C)C(=O)OCCn1c2ccccc2c2ccccc21 (repeat unit) |
| 277.00 °C | *c1ccc(Oc2ccccc2Oc2ccc(-n3c(=O)c4cc5c(=O)n(*)c(=O)c5cc4c3=O)cc2C(F)(F)F)c(C(F)(F)F)c1 (repeat unit) |
| 108.50 °C | *c1ccc2c(c1)C(=O)N(c1cccc(C(F)(F)C(F)(F)C(F)(F)C(F)(F)C(F)(F)c3cccc(N4C(=O)c5ccc(C(F)(F)C(F)(F)C(F)(F)C(F)(F)C(F)(F)C(F)(F)C(*)(F)F)cc5C4=O)c3)c1)C2=O (repeat unit) |
| 188.00 °C | *CCCC(=O)Nc1ccc(Oc2cccc(NC(=O)CCCN3C(=O)c4ccc(C(=O)c5ccc6c(c5)C(=O)N(*)C6=O)cc4C3=O)c2)cc1 (repeat unit) |
| 122.50 °C | *CCCCCCNC(=O)c1ccccc1-c1ccccc1C(=O)N* (repeat unit) |
| 82.00 °C | *c1cccc(S(=O)(=O)NCCCCNS(*)(=O)=O)c1 (repeat unit) |
| -63.00 °C | *O[Si](C)(C=C)O[Si](C)(C)c1ccc([Si](*)(C)C)cc1 (repeat unit) |
| 196.00 °C | *c1cccc(Oc2ccc(C#N)c(Oc3cccc(N4C(=O)c5ccc(Oc6ccc7c(c6)C(=O)N(*)C7=O)cc5C4=O)c3)c2)c1 (repeat unit) |
| 43.00 °C | *CNC(=O)OCC(OC(=O)NCc1ccc(C(CCC)c2ccc(*)o2)o1)c1ccco1 (repeat unit) |

| Compound | glass transition temperature |
| --- | --- |
| *CC(*)C(=O)Nc1ccccc1Cl (repeat unit) | 63.00 °C |
| *CC(*)c1ccc([SiH](C)C)cc1 (repeat unit) | 105.00 °C |
| *CC(*)OC=O (repeat unit) [Poly(vinyl formate)] | 32.4 ± 3.6 °C |
| *O[Si](*)(C([2H])([2H])[2H])C([2H])([2H])[2H] (repeat unit) | -125.00 °C |
| *CC(*)(C)c1ccccc1 (repeat unit) [poly(alpha-methylstyrene)] | 168.00 ± 140 °C |
| *O[Si](C)(C)c1ccc([Si](*)(C)C)cc1 (repeat unit) | -18.00 °C |
| *CC(C)(CO)CO* (repeat unit) | 62.00 °C |
| *C[Si](*)(C)c1ccccc1 (repeat unit) | 28.00 °C |
| */C=C/C(*)(C)C (repeat unit) | -9.00 °C |
| *CC(*)c1cc(Br)ccc1OCCCC (repeat unit) | 47.00 °C |
| *CC(C)/C=C(/*)C (repeat unit) | 2.30 °C |
| *OC(C)COC(=O)/C=C/C(*)=O (repeat unit) | -14.00 °C |
| *CC(*)(C)C(=O)OCC(F)(F)F (repeat unit) [Poly(2,2,2-trifluoroethyl methacrylate)] | 74.42 ± 0.8 °C |
| *CC(*)c1ccc(COCCC)cc1 (repeat unit) [Poly(p-n-propoxymethyl styrene) ] | 22 ± 1.2 °C |
| *CC(*)c1ccc(OCC)cc1 (repeat unit) | 86.00 °C |
| *CC(*)c1ccc(COC)cc1 (repeat unit) [Poly(p-methoxymethyl styrene)] | 77 ± 0.6 °C |
| *O[Si](C)(C)[Si](*)(C)C (repeat unit) | -119.00 °C |
